Measured values published in patent publication US20220193095A9, “PHARMACEUTICAL COMPOSITIONS” (Shenzhen Pharmacin Co., Ltd., priority 2019, published 2022).

Tests used:
[1] = cited from earlier work
[2] = Solubility of abiraterone acetate in aqueous media
[3] = cited from earlier work; remark: listed apart in the source
[4] = Solubility of abiraterone acetate in lipids (glycerides); details: 25° C.
[5] = Solubility of abiraterone acetate in surfactants
[6] = Solubility of abiraterone acetate in co-solvents
[7] = Solubility of abiraterone acetate in fatty acids; details: 25° C.
[8] = Solubility of abiraterone acetate in other media

## CC(=O)O[C@H]1CC[C@@]2(C)C(=CC[C@@H]3[C@@H]2CC[C@]2(C)C(c4cccnc4)=CC[C@@H]32)C1 [Abiraterone acetate]
[1]
  solubility in water: practically insoluble in water
[2]; FDA Dissolution medium: 0.25% SLS in 56.5 mM phosphate buffer, pH 4.5, 25° C.
  Solubility: 0.7 mg/mL
[2]; pH 3.0 buffer, 25° C.
  Solubility: <0.001 mg/mL
[2]; pH 4.0 buffer, 25° C.
  Solubility: <0.001 mg/mL
[2]; pH 5.0 buffer, 25° C.
  Solubility: <0.001 mg/mL
[2]; pH 6.0 buffer, 25° C.
  Solubility: <0.001 mg/mL
[2]; pH 7.4 buffer, 25° C.
  Solubility: <0.001 mg/mL
[3]
  Log P: 5.12
[4]; Capryl monoglyceride
  Solubility: 139.8 mg/mL
[4]; Castor oil
  Solubility: 59.6 mg/mL
[4]; Coconut oil
  Solubility: 30.6 mg/mL
[4]; Corn oil
  Solubility: 31.4 mg/mL
[4]; Glycerol mono/di-caprylocaprate
  Solubility: 147.0 mg/mL
[4]; Glyceryl monooleate
  Solubility: 37.1 mg/mL
[4]; Isopropyl myristate
  Solubility: 41.0 mg/mL
[4]; Olive oil
  Solubility: 27.3 mg/mL
[4]; Polyglycerol fatty acid ester
  Solubility: 10.0 mg/mL
[4]; Propylene Glycol Monocaprylate
  Solubility: 160.0 mg/mL
[4]; Soybean oil
  Solubility: 28.1 mg/mL
[5]; Labrasol, 25° C.
  Solubility: 35.4 mg/mL
[5]; Polyethylene Glycol Oleate, 25° C.
  Solubility: 52.7 mg/mL
[5]; Polyoxyethylene 8 stearate, 25° C.
  Solubility: 18.1 mg/mL
[5]; Polyoxyethylene hydrogenated castor oil, 25° C.
  Solubility: 10.1 mg/mL
[5]; Tween 80, 25° C.
  Solubility: 7.5 mg/mL
[6]; Ethanol, 25° C.
  Solubility: 61.1 mg/mL
[6]; Glycerol, 25° C.
  Solubility: 5.0 mg/mL
[6]; PEG400, 25° C.
  Solubility: 16.5 mg/mL
[6]; Propylene glycol, 25° C.
  Solubility: 5.0 mg/mL
[6]; Transcutol, 25° C.
  Solubility: 99.5 mg/mL
[7]; Acetic acid
  Solubility: 2386.1 mg/mL
[7]; Butyric acid
  Solubility: 1399.3 mg/mL
[7]; Heptanoic acid
  Solubility: 1325.9 mg/mL
[7]; Linoleic acid
  Solubility: 182.9 mg/mL
[7]; Nonanoic acid
  Solubility: 1084.1 mg/mL
[7]; Oleic acid
  Solubility: 239.0 mg/mL
[7]; Propionic acid
  Solubility: 2209.5 mg/mL
[7]; Valeric acid
  Solubility: 1104.8 mg/mL
[7]; n-caproic acid
  Solubility: 1572.6 mg/mL
[7]; n-caprylic acid
  Solubility: 1214.7 mg/mL
[8]; 1-octanol, 25° C.
  Solubility: 114.0 mg/mL
[8]; Azone (Laurocapram), 25° C.
  Solubility: 66.0 mg/mL
[8]; Capryl monoglyceride, 25° C. (Table 11)
  Solubility: 139.8 mg/mL
[8]; Glycerol mono/di-caprylocaprate, 25° C. (Table 11)
  Solubility: 147.0 mg/mL
[8]; Glyceryl monooleate, 25° C. (Table 11)
  Solubility: 37.1 mg/mL
[8]; Isopropyl myristate, 25° C. (Table 11)
  Solubility: 41.0 mg/mL
[8]; Polyglycerol fatty acid ester, 25° C. (Table 11)
  Solubility: 10.0 mg/mL
[8]; Propylene Glycol Monocaprylate, 25° C. (Table 11)
  Solubility: 160.0 mg/mL
